Tests used:
Assay type in all cases: in vivo
Details in all cases: 21 days after treatment
[1] = test system: Panicum millenacearum (PANMI); experiment: Pre-emergence test, Panicum millenacearum
Source text: (§1) The herbicidal action to be expected, We, for a given combination of two herbicides can be calculated as follows (see COLBY, S. R. “Calculating synergistic and antagonistic response of herbicide combinations”. Weeds 15, pages 20-22; 1967): We=X+[Y·(100−X)/100] wherein: X=% herbicidal action in the case of treatment with active ingredient (A) using an application rate of p kg per hectare, in comparison with untreated control (=0%). Y=% herbicidal action in the case of treatment with active ingredient (B) using an application rate of q kg per hectare, in comparison with untreated control. We=expected herbicidal action (% herbicidal action in comparison with untreated control) after treatment with active ingredient (A) and active ingredient (B) at a rate of application of p+q kg of active ingredient per hectare. If the action actually observed is greater than the expected value We, there is a synergistic effect. Trial Description, Pre-Emergence Test: Monocotyledonous and dicotyledonous test plants are sown in standard soil in plastics pots. The plants tested were: Maize (ZEAMX), Ipomea purpurea (PHBPU), Euphorbia heterophylla (EPHHL), Panicum millenacearum (PANMI). Immediately after sowing, the test compounds in aqueous suspension are applied by spraying (200 litres of water/ha). (A) was formulated as a SC50, and (B1), (B2) and (B3) were formulated as WP25; 1% adjuvant crop oil concentrate (Agridex) (v/v) was added to all treatments. The compounds were applied alone and in combination as tank mixtures. The rates of application depend on the optimum concentrations determined under field conditions and greenhouse conditions. The test plants are then cultivated in a greenhouse under optimum conditions. Evaluation of the tests is made after 21 days (% action, 100%=plants have died, 0%=no phytotoxic action).

Sorghum vulgare (SORVU) = experiment: Post-emergence test, Sorghum vulgare
Source text: as §1
(§2) Trial Description Post-Emergence Test: The test plants are raised in plastics pots under greenhouse conditions as far as the 2- to 3-leaf stage. A standard soil is used as the cultivation substrate. The plants tested were: Maize (ZEAMX), Ipomea purpurea (PHBPU), Sorghum vulgare (SORVU), Euphorbia heterophylla (EPHHL), Panicum millenacearum (PANMI). At the 2- to 3-leaf stage, the herbicides are applied individually and as mixtures to the test plants. The test compounds are applied in the form of an aqueous suspension in 200 litres of water/ha. (A) was formulated as a SC50, and (B1), (B2) and (B3) were formulated as WP25; 1% adjuvant crop oil concentrate (Agridex) (v/v) was added to all treatments. The compounds were applied alone and in combination as tank mixtures. The rates of application depend on the optimum concentrations determined under field conditions and greenhouse conditions. Evaluation of the tests is made after 21 days (% action, 100%=plants have died, 0%=no phytotoxic action).

Ipomea purpurea (PHBPU) [2] = experiment: Pre-emergence test, Ipomea purpurea
Source text: as §1

[3] = test system: Euphorbia heterophylla (EPHHL); experiment: Pre-emergence test, Euphorbia heterophylla
Source text: as §1

Maize (ZEAMX) [4] = experiment: Post-emergence test, Maize
Source text: as §1, §2

[5] = test system: Euphorbia heterophylla (EPHHL); experiment: Post-emergence test, Euphorbia heterophylla
Source text: as §1, §2

Maize (ZEAMX) [6] = experiment: Pre-emergence test, Maize
Source text: as §1

Ipomea purpurea (PHBPU) [7] = experiment: Post-emergence test, Ipomea purpurea
Source text: as §1, §2

[8] = test system: Panicum millenacearum (PANMI); experiment: Post-emergence test, Panicum millenacearum
Source text: as §1, §2

`Cn1nc(C(F)(F)F)c(CS(=O)(=O)C2=NOC(C)(C)C2)c1OC(F)F` [(A), 3-[[[5-(difluoromethoxy)-1-methyl-3-(trifluoromethyl)-1H-pyrazol-4-yl]methyl]-sulfonyl]-4,5-dihydro-5,5-dimethyl-isoxazole] was tested, and the “Observed plant damage PANMI” value ([1]; rate 12.5 g/ha) was 0%, the “Observed plant damage PANMI” value ([1]; rate 25 g/ha) was 0% and the “Observed plant damage PANMI” value ([1]; rate 50 g/ha) was 70%. For the same compound, the “Observed plant damage PANMI” value ([1]; rate 100 g/ha) was 100%, the “Observed plant damage PANMI” value ([1]; rate 200 g/ha) was 100% and the “Observed plant damage SORVU” value (Sorghum vulgare (SORVU); rate 12.5 g/ha) was 0%. For the same compound, the “Observed plant damage SORVU” value (Sorghum vulgare (SORVU); rate 25 g/ha) was 0%, the “Observed plant damage SORVU” value (Sorghum vulgare (SORVU); rate 50 g/ha) was 0% and the “Observed plant damage SORVU” value (Sorghum vulgare (SORVU); rate 100 g/ha) was 0%. The “Observed plant damage SORVU” value (Sorghum vulgare (SORVU); rate 200 g/ha) was 0%, the “Observed plant damage PHBPU” value (Ipomea purpurea (PHBPU) [2]; rate 12.5 g/ha) was 0% and the “Observed plant damage PHBPU” value (Ipomea purpurea (PHBPU) [2]; rate 25 g/ha) was 0%. The “Observed plant damage PHBPU” value (Ipomea purpurea (PHBPU) [2]; rate 50 g/ha) was 0%, the “Observed plant damage PHBPU” value (Ipomea purpurea (PHBPU) [2]; rate 100 g/ha) was 75% and the “Observed plant damage PHBPU” value (Ipomea purpurea (PHBPU) [2]; rate 200 g/ha) was 95%. The “Observed plant damage EPHHL” value ([3]; rate 12.5 g/ha) was 0%, the “Observed plant damage EPHHL” value ([3]; rate 25 g/ha) was 0% and the “Observed plant damage EPHHL” value ([3]; rate 50 g/ha) was 15%. The “Observed plant damage EPHHL” value ([3]; rate 100 g/ha) was 40%, the “Observed plant damage EPHHL” value ([3]; rate 200 g/ha) was 75% and the “Observed plant damage ZEAMX” value (Maize (ZEAMX) [4]; rate 12.5 g/ha) was 0%. The “Observed plant damage ZEAMX” value (Maize (ZEAMX) [4]; rate 25 g/ha) was 0%, the “Observed plant damage ZEAMX” value (Maize (ZEAMX) [4]; rate 50 g/ha) was 0% and the “Observed plant damage ZEAMX” value (Maize (ZEAMX) [4]; rate 100 g/ha) was 0%. The “Observed plant damage ZEAMX” value (Maize (ZEAMX) [4]; rate 200 g/ha) was 0%, the “Observed plant damage EPHHL” value ([5]; rate 12.5 g/ha) was 0% and the “Observed plant damage EPHHL” value ([5]; rate 25 g/ha) was 0%. For the same compound, the “Observed plant damage EPHHL” value ([5]; rate 50 g/ha) was 15%, the “Observed plant damage EPHHL” value ([5]; rate 100 g/ha) was 35% and the “Observed plant damage EPHHL” value ([5]; rate 200 g/ha) was 40%. For the same compound, the “Observed plant damage ZEAMX” value (Maize (ZEAMX) [6]; rate 12.5 g/ha) was 0%, the “Observed plant damage ZEAMX” value (Maize (ZEAMX) [6]; rate 25 g/ha) was 0% and the “Observed plant damage ZEAMX” value (Maize (ZEAMX) [6]; rate 50 g/ha) was 0%. The “Observed plant damage ZEAMX” value (Maize (ZEAMX) [6]; rate 100 g/ha) was 0%, the “Observed plant damage ZEAMX” value (Maize (ZEAMX) [6]; rate 200 g/ha) was 0% and the “Observed plant damage PHBPU” value (Ipomea purpurea (PHBPU) [7]; rate 12.5 g/ha) was 0%. For the same compound, the “Observed plant damage PHBPU” value (Ipomea purpurea (PHBPU) [7]; rate 25 g/ha) was 20%, the “Observed plant damage PHBPU” value (Ipomea purpurea (PHBPU) [7]; rate 50 g/ha) was 20% and the “Observed plant damage PHBPU” value (Ipomea purpurea (PHBPU) [7]; rate 100 g/ha) was 75%. For the same compound, the “Observed plant damage PHBPU” value (Ipomea purpurea (PHBPU) [7]; rate 200 g/ha) was 85%, the “Observed plant damage PANMI” value ([8]; rate 12.5 g/ha) was 0% and the “Observed plant damage PANMI” value ([8]; rate 25 g/ha) was 35%. The “Observed plant damage PANMI” value ([8]; rate 50 g/ha) was 65%, the “Observed plant damage PANMI” value ([8]; rate 100 g/ha) was 65% and the “Observed plant damage PANMI” value ([8]; rate 200 g/ha) was 75%.

In the case of `COCCOCc1nc(C(F)(F)F)ccc1C(=O)C1C(=O)C2CCC(C2)C1=O` (stereo not drawn) [(B1), 4-hydroxy-3-[[2-[(2-methoxyethoxy)methyl]-6-(trifluoromethyl)-3-pyridinyl]carbonyl]-bicyclo[3.2.1]oct-3-en-2-one], the “Observed plant damage PANMI” value ([1]; rate 18.75 g/ha) is reported as 15%, the “Observed plant damage PANMI” value ([1]; rate 37.5 g/ha) is reported as 65% and the “Observed plant damage PANMI” value ([1]; rate 75 g/ha) is reported as 80%. The “Observed plant damage PANMI” value ([1]; rate 150 g/ha) was 100%, the “Observed plant damage PANMI” value ([1]; rate 300 g/ha) was 100% and the “Observed plant damage SORVU” value (Sorghum vulgare (SORVU); rate 18.75 g/ha) was 0%. The “Observed plant damage SORVU” value (Sorghum vulgare (SORVU); rate 37.5 g/ha) was 0%, the “Observed plant damage SORVU” value (Sorghum vulgare (SORVU); rate 75 g/ha) was 0% and the “Observed plant damage SORVU” value (Sorghum vulgare (SORVU); rate 150 g/ha) was 10%. The “Observed plant damage SORVU” value (Sorghum vulgare (SORVU); rate 300 g/ha) was 35%, the “Observed plant damage PHBPU” value (Ipomea purpurea (PHBPU) [2]; rate 18.75 g/ha) was 0% and the “Observed plant damage PHBPU” value (Ipomea purpurea (PHBPU) [2]; rate 37.5 g/ha) was 0%. For the same compound, the “Observed plant damage PHBPU” value (Ipomea purpurea (PHBPU) [2]; rate 75 g/ha) was 0%, the “Observed plant damage PHBPU” value (Ipomea purpurea (PHBPU) [2]; rate 150 g/ha) was 0% and the “Observed plant damage PHBPU” value (Ipomea purpurea (PHBPU) [2]; rate 300 g/ha) was 85%. For the same compound, the “Observed plant damage EPHHL” value ([3]; rate 18.75 g/ha) was 0%, the “Observed plant damage EPHHL” value ([3]; rate 37.5 g/ha) was 0% and the “Observed plant damage EPHHL” value ([3]; rate 75 g/ha) was 75%. For the same compound, the “Observed plant damage EPHHL” value ([3]; rate 150 g/ha) was 75%, the “Observed plant damage EPHHL” value ([3]; rate 300 g/ha) was 100% and the “Observed plant damage ZEAMX” value (Maize (ZEAMX) [4]; rate 18.75 g/ha) was 0%. The “Observed plant damage ZEAMX” value (Maize (ZEAMX) [4]; rate 37.5 g/ha) was 0%, the “Observed plant damage ZEAMX” value (Maize (ZEAMX) [4]; rate 75 g/ha) was 0% and the “Observed plant damage ZEAMX” value (Maize (ZEAMX) [4]; rate 150 g/ha) was 0%. For the same compound, the “Observed plant damage ZEAMX” value (Maize (ZEAMX) [4]; rate 300 g/ha) was 0%, the “Observed plant damage EPHHL” value ([5]; rate 18.75 g/ha) was 65% and the “Observed plant damage EPHHL” value ([5]; rate 37.5 g/ha) was 80%. The “Observed plant damage EPHHL” value ([5]; rate 75 g/ha) was 90%, the “Observed plant damage EPHHL” value ([5]; rate 150 g/ha) was 90% and the “Observed plant damage EPHHL” value ([5]; rate 300 g/ha) was 98%. The “Observed plant damage ZEAMX” value (Maize (ZEAMX) [6]; rate 18.75 g/ha) was 0%, the “Observed plant damage ZEAMX” value (Maize (ZEAMX) [6]; rate 37.5 g/ha) was 0% and the “Observed plant damage ZEAMX” value (Maize (ZEAMX) [6]; rate 75 g/ha) was 0%. The “Observed plant damage ZEAMX” value (Maize (ZEAMX) [6]; rate 150 g/ha) was 0%, the “Observed plant damage ZEAMX” value (Maize (ZEAMX) [6]; rate 300 g/ha) was 0% and the “Observed plant damage PHBPU” value (Ipomea purpurea (PHBPU) [7]; rate 18.75 g/ha) was 30%. The “Observed plant damage PHBPU” value (Ipomea purpurea (PHBPU) [7]; rate 37.5 g/ha) was 50%, the “Observed plant damage PHBPU” value (Ipomea purpurea (PHBPU) [7]; rate 75 g/ha) was 55% and the “Observed plant damage PHBPU” value (Ipomea purpurea (PHBPU) [7]; rate 150 g/ha) was 70%. The “Observed plant damage PHBPU” value (Ipomea purpurea (PHBPU) [7]; rate 300 g/ha) was 70%, the “Observed plant damage PANMI” value ([8]; rate 18.75 g/ha) was 60% and the “Observed plant damage PANMI” value ([8]; rate 37.5 g/ha) was 70%. The “Observed plant damage PANMI” value ([8]; rate 75 g/ha) was 75%, the “Observed plant damage PANMI” value ([8]; rate 150 g/ha) was 70% and the “Observed plant damage PANMI” value ([8]; rate 300 g/ha) was 90%.
